Experimental data as given in patent US7566712B2, “Biaryl piperazinyl-pyridine analogues” (Neurogen Corporation, priority 2003, dated 2009).
Blank lines part the entries; values can stand above or below the compound they belong to.

Target: T1, human capsaicin receptor (Homo sapiens, UniProt Q8NER1)
T1 construct: pBK-CMV expression construct encoding the full length human capsaicin receptor; expressed in transfected cells
Assay: Calcium mobilization assay, determination of antagonist activity (Example 6)
Type: cell-based
Details: Table II
Method in brief: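 Antagonism measured as inhibition of capsaicin-evoked (final concentration = EC50, from an 8-point 1 nM–3 μM curve) Fluo-3 calcium signal in stable hVR1-HEK293 cells. Test compounds at 1–5 μM final, 0.5–6 h dark preincubation at room temperature. IC50 = concentration giving 50% reduction versus agonist-only response.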

[1] = determined as described in Example 6 (antagonist activity), "*" = 1 micromolar or less
[2] = determined as described in Example 6 (calcium mobilization, antagonist activity)
[3] = determined as described in Example 6, class symbol
[4] = IC50 determined as described in Example 6

T1 sequence (Q8NER1 whole entry): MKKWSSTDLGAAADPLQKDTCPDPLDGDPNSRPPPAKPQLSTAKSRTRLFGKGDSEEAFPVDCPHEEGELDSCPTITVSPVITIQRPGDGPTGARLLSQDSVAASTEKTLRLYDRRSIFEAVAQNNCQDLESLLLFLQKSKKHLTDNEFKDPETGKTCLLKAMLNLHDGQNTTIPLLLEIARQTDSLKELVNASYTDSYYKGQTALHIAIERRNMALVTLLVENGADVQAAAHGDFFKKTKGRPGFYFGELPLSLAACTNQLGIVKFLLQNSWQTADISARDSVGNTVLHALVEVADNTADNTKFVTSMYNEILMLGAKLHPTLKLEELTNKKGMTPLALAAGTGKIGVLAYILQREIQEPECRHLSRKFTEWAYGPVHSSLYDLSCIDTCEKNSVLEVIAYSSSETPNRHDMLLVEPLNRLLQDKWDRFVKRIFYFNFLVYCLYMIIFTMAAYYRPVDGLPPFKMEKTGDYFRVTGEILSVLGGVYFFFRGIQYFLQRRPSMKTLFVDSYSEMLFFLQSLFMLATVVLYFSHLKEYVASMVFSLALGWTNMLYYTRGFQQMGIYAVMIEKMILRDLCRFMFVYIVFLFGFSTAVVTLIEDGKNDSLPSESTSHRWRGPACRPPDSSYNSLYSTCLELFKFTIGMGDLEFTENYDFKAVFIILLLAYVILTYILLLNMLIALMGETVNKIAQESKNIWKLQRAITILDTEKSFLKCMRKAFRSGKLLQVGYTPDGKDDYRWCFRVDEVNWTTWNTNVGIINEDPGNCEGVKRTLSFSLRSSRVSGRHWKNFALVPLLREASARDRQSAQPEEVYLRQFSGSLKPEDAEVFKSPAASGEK

IC50 [1]: ≤ 1000 nM
SMILES: C[C@H]1CN(c2nccnc2Cl)CCN1c1cc(-c2ccc(Cl)c(F)c2)nc(N2CCCC2)n1 [Example 961, 4-(4-chloro-3-fluorophenyl)-6-[(2S)-4-(3-chloropyrazin-2-yl)-2-methylpiperazin-1-yl]-2-pyrrolidin-1-ylpyrimidine]

IC50 [2]: ≤ 1000 nM
SMILES: Cc1cc(-c2cc(N3CCN(c4ncccc4C(F)(F)F)CC3)nc(NS(=O)(=O)C(C)C)n2)ccc1F [Example 690, N-(4-(4-fluoro-3-methylphenyl)-6-{4-[3-(trifluoromethyl)pyridin-2-yl]piperazin-1-yl}pyrimidin-2-yl)propane-2-sulfonamide]

IC50 [3]: ≤ 1000 nM
SMILES: CC1CN(c2nc(-c3ccc(F)c(Cl)c3)nc(N3CCN(c4ncccc4C(F)(F)F)CC3)n2)CC(C)O1 (stereo not shown) [Example 266, 2-(3-chloro-4-fluorophenyl)-4-(2,6-dimethylmorpholin-4-yl)-6-{4-[3-(trifluoromethyl)pyridin-2-yl]piperazin-1-yl}-1,3,5-triazine]

IC50 [2]: ≤ 1000 nM
SMILES: Cc1cc(-c2cc(N3CCN(c4ncccc4Cl)C[C@H]3C)nc(N3CCCC3)n2)ccc1F [Example 718, 4-[(2R)-4-(3-chloropyridin-2-yl)-2-methylpiperazin-1-yl]-6-(4-fluoro-3-methylphenyl)-2-pyrrolidin-1-ylpyrimidine]

IC50 [3]: ≤ 1000 nM
SMILES: CCc1cccc(-c2nc(N3CCOCC3)nc(N3CCN(c4ccccn4)CC3)n2)c1 [Example 237, 2-(3-ethylphenyl)-4-morpholin-4-yl-6-(4-pyridin-2-ylpiperazin-1-yl)-1,3,5-triazine]

IC50 [1]: ≤ 1000 nM
SMILES: C[C@H]1CN(c2ncccc2Cl)CCN1c1cc(-c2ccc(F)c(Cl)c2)nc(N2CCCC2)n1 [Example 946, 4-(3-chloro-4-fluorophenyl)-6-[(2S)-4-(3-chloropyridin-2-yl)-2-methylpiperazin-1-yl]-2-pyrrolidin-1-ylpyrimidine]

IC50 [1]: ≤ 1000 nM
SMILES: Cc1ccc(-c2cc(N3CCN(c4ncccc4Cl)C[C@H]3C)nc(N3CCCC3)n2)cc1C [Example 805, 4-[(2R)-4-(3-chloropyridin-2-yl)-2-methylpiperazin-1-yl]-6-(3,4-dimethylphenyl)-2-pyrrolidin-1-ylpyrimidine]

IC50 [2]: ≤ 1000 nM
SMILES: Fc1ccc(-c2cc(N3CCN(c4ncccc4C(F)(F)F)CC3)nc(N3CCC3)n2)cc1Cl [Example 710, 2-azetidin-1-yl-4-(3-chloro-4-fluorophenyl)-6-{4-[3-(trifluoromethyl)pyridin-2-yl]piperazin-1-yl}pyrimidine]

IC50 [1]: ≤ 1000 nM
SMILES: COC1CN(c2nc(-c3ccc(F)c(Cl)c3)cc(N3CCN(c4ncccc4C(F)(F)F)CC3)n2)C1 [Example 776, 4-(3-chloro-4-fluorophenyl)-2-(3-methoxyazetidin-1-yl)-6-{4-[3-(trifluoromethyl)pyridin-2-yl]piperazin-1-yl}pyrimidine]

IC50 [2]: ≤ 1000 nM
SMILES: CC1(C)CCCN1c1nc(-c2ccc(F)c(Cl)c2)cc(N2CCN(c3ncccc3C(F)(F)F)CC2)n1 [Example 699, 4-(3-chloro-4-fluorophenyl)-2-(2,2-dimethylpyrrolidin-1-yl)-6-{4-[3-(trifluoromethyl)pyridin-2-yl]piperazin-1-yl}pyrimidine]

IC50 [1]: ≤ 1000 nM
SMILES: COc1ncc(Cl)c(N2CCN(c3cc(-c4ccc(F)cc4)nc(N4CCCC4)n3)[C@H](C)C2)n1 [Example 967, 5-chloro-4-{(3R)-4-[6-(4-fluorophenyl)-2-pyrrolidin-1-ylpyrimidin-4-yl]-3-methylpiperazin-1-yl}-2-methoxypyrimidine]

IC50 [2]: ≤ 1000 nM
SMILES: CC1CCCN1c1nc(-c2ccc(F)c(Cl)c2)cc(N2CCN(c3ncccc3Cl)C[C@H]2C)n1 (stereo partly drawn) [Example 732, 4-(3-chloro-4-fluorophenyl)-6-[(2R)-4-(3-chloropyridin-2-yl)-2-methylpiperazin-1-yl]-2-(2-methylpyrrolidin-1-yl)pyrimidine]

IC50 [2]: ≤ 1000 nM
SMILES: CC(=O)c1nc(-c2ccc(F)c(Cl)c2)cc(N2CCN(c3ncccc3C(F)(F)F)CC2)n1 [Example 671, 1-(4-(3-chloro-4-fluorophenyl)-6-{4-[3-(trifluoromethyl)pyridin-2-yl]piperazin-1-yl}pyrimidin-2-yl)ethanone]

IC50 [1]: ≤ 1000 nM
SMILES: Cc1cc(-c2cc(N3CCN(c4ncccc4Cl)C[C@@H]3C)nc(N3CCCC3)n2)ccc1F [Example 902, 4-[(2S)-4-(3-chloropyridin-2-yl)-2-methylpiperazin-1-yl]-6-(4-fluoro-3-methylphenyl)-2-pyrrolidin-1-ylpyrimidine]

IC50 [2]: ≤ 1000 nM
SMILES: Cc1cc(-c2cc(N3CCN(c4ncccc4C(F)(F)F)CC3)nc(N3CCCC3)n2)ccc1F [Example 674, 4-(4-fluoro-3-methylphenyl)-2-pyrrolidin-1-yl-6-{4-[3-(trifluoromethyl)pyridin-2-yl]piperazin-1-yl}pyrimidine]

IC50 [2]: ≤ 1000 nM
SMILES: Cc1cc(-c2cc(N3CCN(c4ncccc4C(F)(F)F)CC3)nc(N3CCOCC3)n2)ccc1F [Example 576, 4-(4-(4-fluoro-3-methylphenyl)-6-{4-[3-(trifluoromethyl)pyridin-2-yl]piperazin-1-yl}pyrimidin-2-yl)morpholifle]

IC50 [2]: ≤ 1000 nM
SMILES: C[C@@H]1CN(c2nc(-c3ccc(F)c(Cl)c3)cc(N3CCN(c4ncccc4C(F)(F)F)CC3)n2)[C@@H](C)CN1C [Example 628, 4-(3-chloro-4-fluorophenyl)-6-{4-[3-(trifluoromethyl)pyridin-2-yl]piperazin-1-yl}-2-[(2S,5R)-2,4,5-trimethylpiperazin-1-yl]pyrimidine]

IC50 [3]: ≤ 1000 nM
SMILES: Cc1ccc(F)cc1-c1nc(N2CCOCC2)nc(N2CCN(c3ccccn3)CC2)n1 [Example 272, 2-(5-fluoro-2-methylphenyl)-4-morpholin-4-yl-6-(4-pyridin-2-ylpiperazin-1-yl)-1,3,5-triazine]

IC50 [1]: ≤ 1000 nM
SMILES: COc1ccc(Cl)c(N2CCN(c3cc(-c4ccc(F)cc4)nc(N4CCCC4C)n3)[C@H](C)C2)n1 (stereo partly shown) [Example 955, 4-[4-(3-chloro-6-methoxypyridin-2-yl)-2-methylpiperazin-1-yl]-6-(4-fluorophenyl)-2-(2-methylpyrrolidin-1-yl)pyrimidine]

IC50 [1]: ≤ 1000 nM
SMILES: CC1CCCN1c1nc(-c2ccc(F)c(F)c2)cc(N2CCN(c3nccnc3Cl)C[C@@H]2C)n1 (stereo partly drawn) [Example 938, 4-[(2S)-4-(3-chloropyrazin-2-yl)-2-methylpiperazin-1-yl]-6-(3,4-difluorophenyl)-2-(2-methylpyrrolidin-1-yl)pyrimidine]

IC50 [4]: ≤ 1000 nM
SMILES: CC(C)c1ccc(-c2cc(N3CCN(c4ncccc4C#N)C[C@H]3C)nc(N3CCOCC3)n2)cc1 [Example 503, 2-{(3R)-4-[6-(4-isopropylphenyl)-2-morpholin-4-ylpyrimidin-4-yl]-3-methylpiperazin-1-yl}nicotinonitrile]

IC50 [2]: ≤ 1000 nM
SMILES: CC1CN(c2nc(-c3ccc(F)c(Cl)c3)cc(N3CCN(c4ncccc4C(F)(F)F)CC3)n2)CCN1C (stereo not shown) [Example 634, 4-(3-chloro-4-fluorophenyl)-2-(3,4-dimethylpiperazin-1-yl)-6-{4-[3-(trifluoromethyl)pyridin-2-yl]piperazin-1-yl}pyrimidine]

IC50 [4]: ≤ 1000 nM
SMILES: C[C@@H]1CN(c2ncccc2C(F)(F)F)CCN1c1cc(-c2ccccc2)nc(N2CCOCC2)n1 [Example 478, 4-(4-{(2R)-2-methyl-4-[3-(trifluoromethyl)pyridin-2-yl]piperazin-1-yl}-6-phenylpyrimidin-2-yl)morpholine]

IC50 [2]: ≤ 1000 nM
SMILES: Fc1ccc(-c2cc(N3CCN(c4ncccc4Cl)CC3)nc(SCc3ccccc3)n2)cc1Cl [Example 700, 2-(benzylthio)-4-(3-chloro-4-fluorophenyl)-6-[4-(3-chloropyridin-2-yl)piperazin-1-yl]pyrimidine]

IC50 [4]: ≤ 1000 nM
SMILES: C[C@@H]1CN(c2ncccc2C#N)CCN1c1cc(-c2ccc(F)cc2)nc(N2CCOCC2)n1 [Example 486, 2-{(3R)-4-[6-(4-fluorophenyl)-2-morpholin-4-ylpyrimidin-4-yl]-3-methylpiperazin-1-yl}nicotinonitrile]

IC50 [2]: ≤ 1000 nM
SMILES: O=S(=O)(Cc1ccccc1)c1nc(-c2ccc(F)c(Cl)c2)cc(N2CCN(c3ncccc3Cl)CC2)n1 [Example 701, 2-(benzylsulfonyl)-4-(3-chloro-4-fluorophenyl)-6-[4-(3-chloropyridin-2-yl)piperazin-1-yl]pyrimidine]

IC50 [2]: ≤ 1000 nM
SMILES: Cc1cc(-c2cc(N3CCN(c4ncccc4Cl)CC3)nc(N3CCCCC3C)n2)ccc1F (stereo not shown) [Example 744, 4-[4-(3-chloropyridin-2-yl)piperazin-1-yl]-6-(4-fluoro-3-methylphenyl)-2-(2-methylpiperidin-1-yl)pyrimidine]

IC50 [4]: ≤ 1000 nM
SMILES: CCOC(=O)c1cccc(-c2nc(N3CCOCC3)nc(N3CCN(c4ccccn4)CC3)n2)c1 [Example 434, ethyl 3-[4-morpholin-4-yl-6-(4-pyridin-2-ylpiperazin-1-yl)-1,3,5-triazin-2-yl]benzoate]

IC50 [2]: ≤ 1000 nM
SMILES: Cc1cc(-c2cc(N3CCN(c4ncccc4C(F)(F)F)CC3)nc(N3CCC3(C)C)n2)ccc1F [Example 766, 2-(2,2-dimethylazetidin-1-yl)-4-(4-fluoro-3-methylphenyl)-6-{4-[3-(trifluoromethyl)pyridin-2-yl]piperazin-1-yl}pyrimidine]

IC50 [4]: ≤ 1000 nM
SMILES: C[C@@H]1CN(c2ncccc2Cl)CCN1c1cc(-c2ccc3ccccc3c2)nc(N2CCOCC2)n1 [Example 492, 4-[4-[(2R)-4-(3-chloropyridin-2-yl)-2-methylpiperazin-1-yl]-6-(2-naphthyl)pyrimidin-2-yl]morpholine]

IC50 (IC50 determined as described in Example 6 (antagonist activity, calcium mobilization)): ≤ 1000 nM
SMILES: Cc1ccc(-c2cc(N3CCN(c4nccnc4Cl)C[C@H]3C)nc(N3CCCC3)n2)cc1F [Example 978, 4-[(2R)-4-(3-chloropyrazin-2-yl)-2-methylpiperazin-1-yl]-6-(3-fluoro-4-methylphenyl)-2-pyrrolidin-1-ylpyrimidine]
